Data reported in patent publication US20230257435A1, “Wound Healing Composition and Uses Thereof” (AGENCY FOR SCIENCE, TECHNOLOGY AND RESEARCH, priority 2020, published 2023).

Legend:
[1] = tested on: keratinocytes and dermal fibroblasts; assay: In vitro scratch wound-healing assay; assay type: cell-based, human and mouse
Description: (§1) A confluent monolayer of control and Agrin depleted cells in a 6-well plate was subjected to a unidirectional scratch using a 20 μl pipette tip. This was followed by washing with 1×PBS at room temperature and incubation in complete culture media at 37° C. and 5% CO2 with or without sAgrin used as indicated. Phase contrast images of the wound area were taken periodically at the indicated time-points. For some wound-healing migration assays, keratinocytes were cultured on either soft or stiff substrates within a stencil barrier (Nalge Nunc., Inc) for 18 h. Upon removal of the barrier, the cells were allowed to migrate and imaged using an Axiovert 200 inverted microscope at indicated time-points.

[2] = tested on: mouse skin explants; assay: Mouse skin explant assay (keratinocyte outgrowth); assay type: cell-based; conditions: soft matrix with 20 μg/ml sAgrin; MMP408 5 nM, 5 days
Description: Three days old ICR strain mouse pups were sacrificed and the hind skin on either side of the midline in the shoulder region was washed in 70% ethanol and excised using scalpel. The excised skin was washed in 70% ethanol and placed (dermis side down) on the pre-made gel substrates of defined stiffness, either in the absence or presence of 20 μg/ml sAgrin. The explants were allowed to adhere for 2 h before adding the keratinocyte culture medium (DMEM) containing 300 μM Ca^2+ as described previously^31. The keratinocyte outgrowth and the skin tissues regularly imaged under an Axiovert-200 inverted microscope and were subsequently fixed in 4% paraformaldehyde and immunostained for Keratin 17 antibody.
Tissue culture plates were coated with Col-T-gel (Fischer Scientific) of stiffness ranging from 0.8 KPa (soft) to 30 KPa (stiff) as per manufacturer recommendations and allowed to solidify for 40 min at 37° C. inside tissue culture incubators. Some experiments were performed with cells seeded on the poly-hydrogel plates of defined stiffness: 0.2 kPa and 16 kPa soft and hard polyhydrogels, respectively (CytoSoft, Advanced Biomatrix, Inc.,). The determination of stiffness of silicone substrates were done by the manufacturer as per previously published protocols. For certain experiments, indicated amounts of sAgrin was incorporated into the 0.8 KPa collagen gels before gelation process. Upon gelation, trypsinized cells or excised mouse skin explants were plated onto the gels of different stiffness either alone or containing sAgrin. The cells/tissues were incubated under standard culture condition with 500 μl recommended culture medium for the indicated days. The crossbow shaped micropatterns with fibronectin coated islands were generated by microlithography on a 19.5×19.5 mm coverslide from Cytoo, Inc., France. The micropatterns had surface areas of 800μ^2 or 1600μ^2, respectively. Fifty thousand cells after initial siRNA treatment was placed on the micropatterns for 4-6 h before processing them for immunofluorescence. […]

[3] = tested on: phosphorylated myosin light chain (pMLC); assay: Actomyosin cables / pMLC activation after wound scratch; assay type: cell-based, human; conditions: 10 μm Blebbistatin 2 h before scratch
Description: Indicated cells post-manipulation were washed twice with cold Phosphate buffered saline (PBS) and lysed with cold 1% NP-40 lysis buffer supplemented with 1× protease inhibitor cocktail (Roche Applied Biosciences) for 15 mins at 4° C. The cell lysate was centrifuged at 13,000 rpm for 15 min. This was followed by protein estimation using Bradford reagent. Subsequently, […] of total protein was mixed with an equal volume of 2× Laemmli sample buffer and heated at 95° C. for 5 mins. This was followed by resolution with SDS-PAGE gel. The resolved proteins were transferred onto nitrocellulose membrane and blocked in 5% skimmed milk reconstituted in 1×PBS containing 0.1% Tween-20, and probed overnight with the respective primary antibody. The membrane was then washed with 1×PBS supplemented with 0.1% Tween-20: three times at 15 min intervals. This was followed by 1 h incubation in conjugated horseradish peroxidase HRP secondary antibody (Santa Cruz Biotechnology). Post-incubation, the blot was again washed three times as above and then overlaid with enhanced chemiluminescence (ECL) substrate (Pierce/Bio-Rad) and visualized on X-ray film by image processor or digitally by Chemidoc analyzer (Bio-Rad). The density of the various bands was quantified using the Image-J software.
Cells were cultured on eight-well chamber slides or coverslips over-night. Cells were then washed twice with PBS and fixed for 15 min with 4% paraformaldehyde. Subsequently, the cells were permeabilized for 15 min with 0.1% Triton X in Phosphate buffered saline containing 1 mM Ca^+2 and 1 mM Mg^+2 (PBSCM) at room temperature. The permeabilized cells were incubated with indicated antibodies in fluorescent dilution buffer (FDB) for 1-2 h at RT or overnight at 4° C., followed by 5 washes with PBSCM and incubation with secondary antibody; Alexa Fluor (Thermo Fisher Scientific) for 1 h at RT. Slides were again washed five times with PBSCM and mounted with Vectashield medium containing DAPI. The stained cells were then imaged by a Zeiss confocal microscope. The images were processed and analyzed by Zen blue software. Intensity measurements were acquired using tool selection parameter in image analysis within the Zen blue software.
as §1

[4] = tested on: pMLC; assay: Force transmission via ligand conjugated magnetic beads; assay type: cell-based, human; conditions: siAgrin cells
Description: The ligands were conjugated to 4.5 μm epoxide paramagnetic beads (Dynabeads M-450 Epoxy, Thermo Fisher Scientific) according to the manufacturer's manual. Briefly, the beads were washed twice in 0.1 M sodium phosphate buffer, pH 7.4. Subsequently. 8×10^7 beads were conjugated to 20 μg sAgrin, BSA and FN per in 0.1 M sodium phosphate buffer at pH 7.4 for 16-18 h at 4° C. with gentle rotation throughout. The degree of protein conjugation to the beads was verified by a reducing SDS-PAGE gel analysis using a subset of ligand conjugated beads. The remaining beads were washed and subsequently stored in 0.1% BSA-phosphate buffered saline (PBS) pH 7.4 at 4° C. They were subsequently suspended in medium and added on the cells for 30 min at 37° C. After a brief wash with PBS to remove excess non-adherent beads, the cells were placed under a permanent neodymium magnet (J Magnetics, USA) at a distance of 6 mm apart for another 30 min that allowed a vertical tensile force in the magnitudes of ˜200 pN on the beads. The cells were then fixed in 4% paraformaldehyde, permeabilized and processed for immunofluorescence.

COC(=O)Nc1ccc2oc3cc(S(=O)(=O)N[C@H](C(=O)O)C(C)C)ccc3c2c1 [MMP408, reference compound]
migration of sAgrin induced K17 expressing keratinocytes ([1]; 5 nM MMP408, soft substrates and normal culture conditions): blunted the migration of sAgrin induced K17 expressing keratinocytes | sAgrin induced K17 expressing migratory outgrowth [2]: abruptly abolished

Cc1ccc2c(c1)C(=O)C1(O)CCN(c3ccccc3)C1=N2 (centres unmarked) [blebbistatin, reference compound]
sAgrin induced migration post-wound injury ([1]; 10 μm Blebbistatin, 18 h post-wounding): abolished the sAgrin induced migration | sAgrin induced actomyosin cables [3]: abolished

B1: syndecan-4: Syndecan-4 conjugated to magnetic beads (protein, UniProt P31431 19-198, looked up)
Syndecan-4: ESIRETEVIDPQDLLEGRYFSGALPDDEDVVGPGQESDDFELSGSGDLDDLEDSMIGPEVVHPLVPLDNHIPERAGSGSQVPTEPKKLEENEVIPKRISPVEESEDVSNKVSMSSTVQGSNIFERTEVLAALIVGGIVGILFAVFLILLLMYRMKKKDEGSYDLGKKPIYKKAPTNEFYA
modifications: conjugated to magnetic beads
notes: Syndecan-4 conjugated to magnetic beads
rescue of reduced pMLC in Agrin depleted cells by force through ligand beads [4]: rather insufficient to rescue myosin mechanotension
